Source: PubChem BioAssay AID1224920 (Broad Institute, 2016)
Activity calls are given as the source filed them.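 How the source made its calls: active means IC50 no higher than ten times the top tested dose; inconclusive means flat fit with 30 to 70% inhibition, or poor fit; inactive means IC50 above ten times the top dose.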

Test: growth modulation of Clostridium difficile isolate – OD600, 9-point, retest, dose response (AID 1224920);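 further: plate controls were DMSO for no effect and levofloxacin control for full effect; inhibitors lower culture turbidity so OD600 falls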
Conditions: Clostridium difficile clinical isolate growth, OD600, 24 h

| SMILES | activity change, negative = inhibition (at 120 µM (top of the series)) | further results |
| --- | --- | --- |
| C/C=C/c1ccc([C@H]2[C@@H](CO)N(C(=O)CC)[C@H]2CNC(=O)CC)cc1 | – | activity change, negative = inhibition (at 135 µM (top of the series)): -4.24% (inactive) |
| COc1ccc(S(=O)(=O)N2CCCCN3[C@H](CO)[C@@H](c4ccc(C#CC(C)C)cc4)[C@H]3C2)cc1 | 39.3% (inactive) | – |
| O=C(c1cccc(F)c1)N1CC[C@@H]2[C@@H](CO)Nc3ccc(C#Cc4ccc(F)cc4)cc3[C@@H]21 | 38.1% (inactive) | – |
| O=C(NC[C@H]1N[C@H](CO)[C@@H]1c1ccc(C2=CCCCC2)cc1)C1CCCC1 | – | activity change, negative = inhibition (at 60 µM (top of the series)): 38.1% (inactive) |
| CC(=O)N(C)C[C@H]1[C@H](c2ccc(-c3ccccc3F)cc2)[C@H](CO)N1C(C)=O | -3.85% (inactive) | – |
| COc1cccc(-c2ccc3c(c2)[C@@H]2[C@@H](CCN2C(=O)Nc2ccccc2OC)[C@@H](CO)N3C)c1 | – | activity change, negative = inhibition (at 135 µM (top of the series)): -19.3% (inactive) |
| COc1ccccc1-c1ccc2c(c1)[C@@H]1[C@@H](CCN1C(=O)C1CCOCC1)[C@@H](CO)N2 | – | activity change, negative = inhibition (at 60 µM (top of the series)): 39.1% (inactive) |
| CN(C)CC(=O)N1C[C@@H]2N[C@H](C1)C2c1ccc(/C=C/c2ccccc2)cc1 (stereo partly specified) | – | activity change, negative = inhibition (at 60 µM (top of the series)): 46.6% (inactive) |
| C/C=C/c1ccc(C2[C@@H]3CN(S(=O)(=O)c4ccc(F)cc4)C[C@H]2N3)cc1 (stereo partly specified) | – | activity change, negative = inhibition (at 60 µM (top of the series)): 42.1% (inactive) |
| CC(=O)N(C)C[C@@H]1[C@@H](c2ccc(-c3ccccc3F)cc2)[C@H](CO)N1C(C)=O | -14.3% (inactive) | – |
| C[C@H](CO)N1C[C@H](C)[C@H](CN(C)C(=O)Nc2ccc3c(c2)OCO3)Oc2c(NC(=O)Nc3ccc(C(F)(F)F)cc3)cccc2C1=O | 49.4% (inactive) | – |
| O=C(Cc1ccccc1)N1CC[C@H]2[C@H](CO)Nc3ccc(C4=CCCCC4)cc3[C@H]21 | – | activity change, negative = inhibition (at 135 µM (top of the series)): 25.9% (inactive) |
| Cc1cccc(-c2ccc(C3[C@@H]4CN(C(=O)C5CCC5)C[C@H]3N4)cc2)c1 (stereo partly specified) | – | activity change, negative = inhibition (at 60 µM (top of the series)): 39.3% (inactive) |
| N#C[C@@H]1[C@H](c2ccccc2-c2cccc(F)c2)[C@H](CO)N1C(=O)Cc1cccnc1 | – | activity change, negative = inhibition (at 135 µM (top of the series)): 9.55% (inactive) |
| CCc1nc(N2[C@H](C#N)[C@@H](c3ccccc3-c3ccccc3F)[C@@H]2CO)sc1C | 57.6% (inactive) | – |
| COc1ccc2c3c(n(C)c2c1)[C@@H](CO)N(C(=O)c1ccncc1)CC31CN(C)C1 | 3.53% (inactive) | – |
| COc1ccc(NC(=O)N2[C@@H]3CNC[C@H]2C3c2ccc(-c3ccc(F)cc3)cc2)cc1 (stereo partly specified) | – | activity change, negative = inhibition (at 60 µM (top of the series)): 39.8% (inactive) |
| C/C=C/c1ccc([C@@H]2[C@@H](CO)N(Cc3ccccn3)[C@H]2CNC(C)=O)cc1 | -14.5% (inactive) | – |
| O=C(c1ccc(F)cc1)N1CC[C@@H]2[C@H]1c1cc(C3=CCCCC3)ccc1N[C@@H]2CO | – | activity change, negative = inhibition (at 60 µM (top of the series)): 34.8% (inactive) |
| O=S(=O)(c1ccc(F)cc1)N1CCCCN2[C@H](CO)[C@H](c3ccc(-c4ccccc4)cc3)[C@H]2C1 | 39.2% (inactive) | – |
| O=C(C1CCCCC1)N1CC(=O)N2[C@@H](CO)[C@H](c3ccc(C#CCc4ccccc4)cc3)[C@@H]2C1 | – | activity change, negative = inhibition (at 60 µM (top of the series)): 21.9% (inactive) |
| OC[C@H]1[C@H](c2ccc(-c3ccccc3)cc2)[C@@H]2CN(CCC(F)(F)F)CCCCN12 | – | activity change, negative = inhibition (at 60 µM (top of the series)): 31.7% (inactive) |

| SMILES | activity change, negative = inhibition (at 120 µM (top of the series)) | further results |
| --- | --- | --- |
| CN1c2ccc(Br)cc2[C@H]2[C@H](CCN2C(=O)Nc2ccc(F)cc2)[C@@H]1CO | 55.4% (inactive) | – |
| O=C(Nc1ccc(F)cc1)N1[C@@H]2CNC[C@H]1C2c1ccc(-c2ccc(F)cc2)cc1 (stereo partly specified) | – | activity change, negative = inhibition (at 60 µM (top of the series)): 14.2% (inactive) |
| O=C(NC[C@H]1N[C@H](CO)[C@@H]1c1ccc(C2=CCCC2)cc1)C1CCCCC1 | – | activity change, negative = inhibition (at 60 µM (top of the series)): 36.2% (inactive) |
| O=C(C1CCCC1)N1C[C@@H]2N[C@H](C1)C2c1ccc(-c2cccc(F)c2)cc1 (stereo partly specified) | – | activity change, negative = inhibition (at 60 µM (top of the series)): 46.7% (inactive) |
| CCCNC(=O)N1CC[C@H]2[C@@H]1c1cc(C#Cc3ccccc3)ccc1N(C)[C@H]2CO | – | activity change, negative = inhibition (at 60 µM (top of the series)): 49.3% (inactive) |
| Cc1ccccc1-c1ccc([C@H]2[C@@H](CO)N3CCCCN(S(=O)(=O)c4ccc(F)cc4)C[C@H]23)cc1 | 3.42% (inactive) | – |
| CC(=O)NC[C@@H]1[C@H](c2ccc(-c3cccc(F)c3)cc2)[C@H](CO)N1C(C)=O | -6.3% (inactive) | – |
| C/C=C/c1ccc([C@H]2[C@@H](CO)N(C(=O)CC)[C@@H]2CNC(=O)CC)cc1 | – | activity change, negative = inhibition (at 135 µM (top of the series)): -8.82% (inactive) |
| Cc1noc(C)c1NC(=O)N(C)C[C@H]1Oc2ccc(NC(=O)Nc3ccc4c(c3)OCO4)cc2CC(=O)N([C@H](C)CO)C[C@@H]1C | -2.04% (inactive) | – |
| CN1c2ccc(-c3cccc(F)c3)cc2[C@H]2[C@H](CCN2C(=O)C2CCCC2)[C@H]1CO | 40.6% (inactive) | – |
| Cc1ccc(-c2ccc([C@@H]3[C@@H](CO)N4CCCCN(C(=O)Nc5cccc(F)c5)C[C@@H]34)cc2)cc1 | – | activity change, negative = inhibition (at 135 µM (top of the series)): 15.8% (inactive) |
| O=S(=O)(c1ccc(F)cc1)N1CCCCN2[C@H](CO)[C@H](c3ccc(C#CC4CCCC4)cc3)[C@H]2C1 | -16.2% (inactive) | – |
| Cc1ccccc1S(=O)(=O)N1CC[C@@H]2[C@@H](CO)Nc3ccc(-c4ccc(F)cc4)cc3[C@@H]21 | 46.1% (inactive) | – |
| O=C(C1CCCC1)N1C[C@@H]2N[C@H](C1)C2c1ccc(-c2ccccc2F)cc1 (stereo partly specified) | – | activity change, negative = inhibition (at 60 µM (top of the series)): 51.8% (inactive) |
| Cc1ccc(S(=O)(=O)Nc2cccc3c2O[C@@H](CN(C)S(=O)(=O)c2ccccc2)[C@H](C)CN([C@H](C)CO)C3=O)cc1 | -24.7% (inactive) | – |
| COc1ccc2c3c(n(C)c2c1)[C@H](CO)N(C)CC31CN(C(=O)NC(C)C)C1 | 0.365% (inactive) | – |
| Cc1ccc(-c2ccc([C@@H]3[C@@H](CO)N4CCCCN(C(=O)Nc5ccccc5)C[C@@H]34)cc2)cc1 | 27.7% (inactive) | – |
| Cc1ccc(-c2ccc([C@@H]3[C@H]4CN(C(=O)Nc5cccc(F)c5)CCCCN4[C@H]3CO)cc2)cc1 | 6.7% (inactive) | – |
| O=C(Cc1ccccc1)N1CC[C@@H]2[C@H](CO)Nc3ccc(C4=CCCCC4)cc3[C@@H]21 | – | activity change, negative = inhibition (at 68 µM (top of the series)): 29.4% (inactive) |
| CN1c2ccc(Br)cc2[C@@H]2[C@@H](CCN2C(=O)Nc2ccc(F)cc2)[C@H]1CO | 127% (inactive) | – |
| CN(C)C(=O)C[C@@H]1CC[C@@H]2[C@@H](COc3ccc(NC(=O)C4CCC4)cc3C(=O)N2C)O1 | 0.255% (inactive) | – |
| Cc1ccc(-c2ccccc2[C@@H]2[C@@H](C#N)N(C(=O)NC3CCCC3)[C@H]2CO)cc1 | – | activity change, negative = inhibition (at 135 µM (top of the series)): 25% (inactive) |

| SMILES | activity change, negative = inhibition (at 120 µM (top of the series)) | further results |
| --- | --- | --- |
| N#Cc1cccc(-c2ccc(C3[C@@H]4CN(Cc5cocn5)C[C@H]3N4)cc2)c1 (stereo partly specified) | 39.4% (inactive) | – |
| CN(C)C(=O)c1cccc(-c2ccc(C3[C@H]4CNC[C@@H]3N4S(=O)(=O)c3ccc(Cl)cc3)cc2)c1 (stereo partly specified) | – | activity change, negative = inhibition (at 135 µM (top of the series)): 10.5% (inactive) |
| COc1ccccc1S(=O)(=O)N1CC[C@@H]2[C@@H](CO)Nc3ccc(-c4ccc(F)cc4)cc3[C@@H]21 | – | activity change, negative = inhibition (at 135 µM (top of the series)): 47% (inactive) |
| N#C[C@@H]1[C@@H](c2ccccc2-c2cccc(F)c2)[C@H](CO)N1C(=O)NC1CCCC1 | 10.6% (inactive) | – |
| COc1ccc2c3c(n(C)c2c1)[C@H](CO)N(C(=O)Cc1ccccc1)CC31CCN(C)CC1 | 8.89% (inactive) | – |
| CN1c2ccc(-c3cccc(F)c3)cc2[C@@H]2[C@@H](CCN2C(=O)C2CCCC2)[C@@H]1CO | 34.7% (inactive) | – |
| COc1ccc(-c2ccc3c(c2)[C@H]2[C@H](CCN2C(=O)Cc2cccnc2)[C@H](CO)N3C)cc1 | 28.9% (inactive) | – |
| O=S(=O)(c1ccc(F)cc1)N1CCCCN2[C@@H](CO)[C@@H](c3ccc(-c4ccccc4)cc3)[C@@H]2C1 | 0.278% (inactive) | – |
| CC(=O)N1[C@H](CN(C)C(=O)CN2CCOCC2)[C@@H](c2ccccc2)[C@@H]1CO | -1.26% (inactive) | – |
| CC(=O)NC[C@H]1[C@H](c2ccc(-c3cccc(F)c3)cc2)[C@@H](CO)N1C(C)=O | -18.5% (inactive) | – |
| CN1c2ccc(-c3ccc(F)cc3)cc2[C@H]2[C@H](CCN2C(=O)Nc2ccc(F)cc2)[C@H]1CO | 43.1% (inactive) | – |
| CN(C)C(=O)C[C@H]1C=C[C@H](NC(=O)C2CCOCC2)[C@H](CO)O1 | -14.4% (inactive) | – |
| COc1ccc2c3c(n(C)c2c1)[C@H](CO)N(C(=O)Nc1ccc(F)cc1)CC31CCN(C(=O)CN2CCOCC2)CC1 | – | activity change, negative = inhibition (at 135 µM (top of the series)): -1.31% (inactive) |
| N#Cc1cccc(-c2ccc3c(c2)[C@@H]2[C@@H](CCN2Cc2ccc4c(c2)OCO4)[C@@H](CO)N3)c1 | – | activity change, negative = inhibition (at 35 µM (top of the series)): -4.09% (inactive) |
| COc1ccc(NC(=O)N2CCCCN3[C@@H](CO)[C@@H](c4ccc(-c5ccccc5C)cc4)[C@@H]3C2)cc1 | – | activity change, negative = inhibition (at 30 µM (top of the series)): 48% (inactive) |
| O=C(Nc1ccc(F)cc1)N1CCCCN2[C@H](CO)[C@@H](c3ccc(-c4cccc(F)c4)cc3)[C@@H]2C1 | 48.5% (inactive) | – |
| CC(=O)N1[C@H](CO)[C@@H](c2ccccc2)[C@@H]1CN(C)C(=O)CN1CCOCC1 | -9.56% (inactive) | – |
| CC(=O)N(C)C[C@H]1[C@@H](c2ccc(-c3ccccc3F)cc2)[C@@H](CO)N1C(C)=O | -10.3% (inactive) | – |
| C[C@@H]1CN([C@@H](C)CO)C(=O)Cc2cc(NS(=O)(=O)c3ccccc3)ccc2O[C@@H]1CN(C)Cc1ccc(Oc2ccccc2)cc1 | 39.5% (inactive) | – |
| COc1ccc(-c2ccccc2[C@@H]2[C@@H](C#N)N(C(=O)NC3CCCCC3)[C@H]2CO)cc1 | 9.48% (inactive) | – |
| O=C(Nc1ccccc1)N1CCCCN2[C@H](CO)[C@H](c3ccc(-c4ccccc4F)cc3)[C@H]2C1 | – | activity change, negative = inhibition (at 30 µM (top of the series)): 38.6% (inactive) |
| O=C(C[C@@H]1CC[C@@H]2[C@H](COC[C@@H](O)CN2S(=O)(=O)c2ccccc2)O1)NCc1ccc(-c2ccccc2)cc1 | 43.8% (inactive) | – |
